pIC50: −log10 of the molar value.
How the values were obtained:
[1] = biological target: T1, recombinant human transglutaminase 2 (Homo sapiens, UniProt P21980); assay: Transglutaminase assay (dansylcadaverine incorporation into dimethylcasein, DCC-assay); assay type: biochemical; details: recombinant human TG2 10 nM, dansylcadaverine/dimethylcasein, 37° C.
T1 construct: purchased Zedira T022
T1 sequence (P21980 1-687): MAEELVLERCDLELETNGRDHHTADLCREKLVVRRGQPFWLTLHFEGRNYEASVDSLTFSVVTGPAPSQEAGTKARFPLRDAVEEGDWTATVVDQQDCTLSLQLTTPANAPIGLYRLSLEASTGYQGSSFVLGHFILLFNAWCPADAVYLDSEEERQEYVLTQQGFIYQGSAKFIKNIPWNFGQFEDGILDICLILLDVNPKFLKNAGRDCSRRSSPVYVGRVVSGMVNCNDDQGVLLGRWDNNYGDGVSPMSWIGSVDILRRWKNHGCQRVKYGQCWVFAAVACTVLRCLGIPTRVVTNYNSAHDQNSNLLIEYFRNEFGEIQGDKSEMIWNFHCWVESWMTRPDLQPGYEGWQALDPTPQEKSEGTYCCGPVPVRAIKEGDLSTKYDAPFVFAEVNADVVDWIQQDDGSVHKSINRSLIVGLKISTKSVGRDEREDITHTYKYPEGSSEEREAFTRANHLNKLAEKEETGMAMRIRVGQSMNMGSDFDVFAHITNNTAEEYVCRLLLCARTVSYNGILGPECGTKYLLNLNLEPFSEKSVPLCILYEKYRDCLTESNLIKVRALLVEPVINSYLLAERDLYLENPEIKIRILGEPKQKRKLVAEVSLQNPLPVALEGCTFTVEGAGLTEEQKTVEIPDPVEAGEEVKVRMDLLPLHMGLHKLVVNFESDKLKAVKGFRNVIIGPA
Procedure, shortened: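 IC50 derived from fluorescence slope between 20 and 30 min (λex 330 nm, λem 500 nm, 37 °C), expressed relative to a 2% DMSO control. Reaction: 10 nM recombinant human TG2, 4 μM dimethylcasein, 16.7 μM dansylcadaverine, 10 mM CaCl2 and glutathione, pH 8.0.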

[2] = Log D shake flask method (octanol / PBS pH 7.4, HPLC); assay type: physicochemical; details: octanol/phosphate-buffered saline (PBS); octanol / PBS pH 7.4, shake flask
Procedure: In order to classify the inventive compounds according to their lipophilicity, Log D values (distribution coefficient) were determined by means of the well-established shake flask method, measuring the partition of a compound between an octanol and phosphate-buffered saline (PBS, pH 7.4) by HPLC.

[3] = Caco-2 permeability assay (CacoReady kit); assay type: in vitro ADME; details: human
Procedure, shortened: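 Caco-2 monolayer barrier, commercial ready-to-use kit, manufacturer protocol. Read-out: Papp.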

SMILES: COC(=O)/C=C/CC[C@H](NC(=O)c1cc2ccc(N(C)C)cc2o1)C(=O)Nc1cccn(CC(=O)NC23CC(C2)C3)c1=O [III-161, (S,E)-methyl 7-(1-(2-(bicyclo[1.1.1]pentan-1-ylamino)-2-oxoethyl)-2-oxo-1,2-dihydropyridin-3-ylamino)-6-(6-(dimethylamino)benzofuran-2-carboxamido)-7-oxohept-2-enoate]
- pIC50 [1]: 5.82 to 6.60
- logD [2]: 1 to 3
- Papp [3]: < 1 ×10⁻⁶ cm/s

SMILES: COC(=O)/C=C/CC[C@H](NC(=O)c1csc(Br)c1)C(=O)Nc1cccn(CC(=O)NC2C3CC4CC(C3)CC2C4)c1=O (stereo partly drawn) [III-17, (S,E)-methyl 6-(5-bromothiophene-3-carboxamido)-7-(1-(2-(2-adamantylamino)-2-oxoethyl)-2-oxo-1,2-dihydropyridin-3-ylamino)-7-oxohept-2-enoate]
- pIC50 [1]: > 7.60
- logD [2]: 3 to 5
- Papp [3]: < 1 ×10⁻⁶ cm/s

SMILES: COC(=O)/C=C/CC[C@H](NC(=O)c1cc(Br)sc1Br)C(=O)Nc1cccn(CC(=O)NC2C3CC4CC(C3)CC2C4)c1=O (stereo partly drawn) [III-16, (S,E)-methyl 6-(2,5-dibromothiophene-3-carboxamido)-7-(1-(2-(2-adamantylamino)-2-oxoethyl)-2-oxo-1,2-dihydropyridin-3-ylamino)-7-oxohept-2-enoate]
- pIC50 [1]: > 7.60
- logD [2]: 3 to 5
- Papp [3]: 1 to 10 ×10⁻⁶ cm/s

SMILES: COC(=O)/C=C/CC[C@H](NC(=O)c1ccnn1C)C(=O)Nc1cccn(CC(=O)NC23CC4(C)CC(C)(CC(C)(C4)C2)C3)c1=O [III-109, (S,E)-methyl 7-(1-(2-(3,5,7-trimethyl-1-adamantylamino)-2-oxoethyl)-2-oxo-1,2-dihydropyridin-3-ylamino)-6-(1-methyl-1H-pyrazole-5-carboxamido)-7-oxohept-2-enoate]
- pIC50 [1]: > 7.60
- logD [2]: 3 to 5
- Papp [3]: < 1 ×10⁻⁶ cm/s

SMILES: COC(=O)/C=C/CC[C@H](NC(=O)c1snnc1C1CC1)C(=O)Nc1cccn(CC(=O)NC23CC(C2)C3)c1=O [III-172, (S,E)-methyl 7-(1-(2-(bicyclo[1.1.1]pentan-1-ylamino)-2-oxoethyl)-2-oxo-1,2-dihydropyridin-3-ylamino)-6-(4-cyclopropyl-1,2,3-thiadiazole-5-carboxamido)-7-oxohept-2-enoate]
- pIC50 [1]: 6.60 to 7.60
- logD [2]: < 1
- Papp [3]: < 1 ×10⁻⁶ cm/s

SMILES: COC(=O)/C=C/CC[C@H](NC(=O)c1c(C)noc1C)C(=O)Nc1cccn(CC(=O)NC2C3CCCC2CC3)c1=O (stereo partly drawn) [III-135, (6S,E)-methyl 7-(1-(2-(bicyclo[3.2.1]octan-8-ylamino)-2-oxoethyl)-2-oxo-1,2-dihydropyridin-3-ylamino)-6-(3,5-dimethylisoxazole-4-carboxamido)-7-oxohept-2-enoate]
- pIC50 [1]: 6.60 to 7.60
- logD [2]: 1 to 3
- Papp [3]: 1 to 10 ×10⁻⁶ cm/s

SMILES: CC(C)NC(=O)/C=C/CC[C@H](NC(=O)c1c[nH]c2ccccc12)C(=O)Nc1cccn(CC(=O)NC23CC(C2)C3)c1=O [III-140, (S,E)-N7-(1-(2-(bicyclo[1.1.1]pentan-1-ylamino)-2-oxoethyl)-2-oxo-1,2-dihydropyridin-3-yl)-6-(1H-indole-3-carboxamido)-N1-isopropylhept-2-enediamide]
- pIC50 [1]: 6.60 to 7.60
- logD [2]: < 1
- Papp [3]: 1 to 10 ×10⁻⁶ cm/s

SMILES: COC(=O)/C=C/CC[C@H](NC(=O)c1oc2ccccc2c1C)C(=O)Nc1cccn(CC(=O)NC23CC4CC(C)(CC(C)(C4)C2)C3)c1=O [III-46, (S,E)-methyl 7-(1-(2-(3,5-dimethyladamantan-1-amino)-2-oxoethyl)-2-oxo-1,2-dihydropyridin-3-ylamino)-6-(3-methylbenzofuran-2-carboxamido)-7-oxohept-2-enoate]
- pIC50 [1]: > 7.60
- logD [2]: 3 to 5
- Papp [3]: 1 to 10 ×10⁻⁶ cm/s

SMILES: COC(=O)/C=C/CC[C@H](NC(=O)c1sc(C(F)(F)F)nc1C)C(=O)Nc1cccn(CC(=O)N[C@@H]2C[C@H]3CC[C@@H]2C3)c1=O [III-98, (S,E)-methyl 7-(1-(2-((1R,2R,4S)-bicyclo[2.2.1]heptan-2-ylamino)-2-oxoethyl)-2-oxo-1,2-dihydropyridin-3-ylamino)-6-(4-methyl-2-(trifluoromethyl)thiazole-5-carboxamido)-7-oxohept-2-enoate]
- pIC50 [1]: > 7.60
- logD [2]: 1 to 3
- Papp [3]: 1 to 10 ×10⁻⁶ cm/s

SMILES: COC(=O)/C=C/CC[C@H](NC(=O)c1c[nH]cn1)C(=O)Nc1cccn(CC(=O)NC2C3CC4CC(C3)CC2C4)c1=O (stereo partly drawn) [III-28, (S,E)-methyl 6-(1H-imidazole-4-carboxamido)-7-(1-(2-(2-adamantylamino)-2-oxoethyl)-2-oxo-1,2-dihydropyridin-3-ylamino)-7-oxohept-2-enoate]
- pIC50 [1]: 5.82 to 6.60
- logD [2]: 3 to 5
- Papp [3]: < 1 ×10⁻⁶ cm/s

SMILES: COC(=O)/C=C/CC[C@H](NC(=O)c1snnc1C)C(=O)Nc1cccn(CC(=O)N[C@H]2C[C@H]3CC[C@]2(C)C3(C)C)c1=O [III-120, (S,E)-methyl 6-(4-methyl-1,2,3-thiadiazole-5-carboxamido)-7-oxo-7-(2-oxo-1-(2-oxo-2-((1R,2S,4R)-1,7,7-trimethylbicyclo[2.2.1]heptan-2-ylamino)ethyl)-1,2-dihydropyridin-3-ylamino)hept-2-enoate]
- pIC50 [1]: > 7.60
- logD [2]: 1 to 3
- Papp [3]: < 1 ×10⁻⁶ cm/s

SMILES: COC(=O)/C=C/CC[C@H](NC(=O)c1ccc2occc2c1)C(=O)Nc1cccn(CC(=O)NC2C3CC4CC2CC(NC(C)=O)(C4)C3)c1=O (stereo partly drawn) [III-165, (S,E)-methyl 6-(benzofuran-5-carboxamido)-7-(1-(2-(1-acetylamino-4-aminoadamantane)-2-oxoethyl)-2-oxo-1,2-dihydropyridin-3-ylamino)-7-oxohept-2-enoate]
- pIC50 [1]: 6.60 to 7.60
- logD [2]: 1 to 3
- Papp [3]: < 1 ×10⁻⁶ cm/s

SMILES: COC(=O)/C=C/CC[C@H](NC(=O)c1oc2ccccc2c1C)C(=O)Nc1cccn(CC(=O)NC[C@@H]2CC[C@H]3C[C@@H]2C3(C)C)c1=O [III-71, (S,E)-methyl 7-(1-(2-(((1S,2R,5S)-6,6-dimethylbicyclo[3.1.1]heptan-2-yl)methylamino)-2-oxoethyl)-2-oxo-1,2-dihydropyridin-3-ylamino)-6-(3-methylbenzofuran-2-carboxamido)-7-oxohept-2-enoate]
- pIC50 [1]: 6.60 to 7.60
- logD [2]: 3 to 5
- Papp [3]: 1 to 10 ×10⁻⁶ cm/s

SMILES: COC(=O)/C=C/CC[C@H](NC(=O)c1sc(C(F)(F)F)nc1C)C(=O)Nc1cccn(CC(=O)NC2C3CC4CC(C3)CC2C4)c1=O (stereo partly drawn) [III-14, (S,E)-methyl 7-(1-(2-(2-adamantylamino)-2-oxoethyl)-2-oxo-1,2-dihydropyridin-3-ylamino)-6-(4-methyl-2-(trifluoromethyl)thiazole-5-carboxamido)-7-oxohept-2-enoate]
- pIC50 [1]: > 7.60
- logD [2]: 3 to 5
- Papp [3]: 1 to 10 ×10⁻⁶ cm/s

SMILES: Cc1nc2ncccc2cc1C(=O)N[C@@H](CC/C=C/C(=O)NC1CCCC1)C(=O)Nc1cccn(CC(=O)NC23CC(C2)C3)c1=O [III-146, (S,E)-N7-(1-(2-(bicyclo[1.1.1]pentan-1-ylamino)-2-oxoethyl)-2-oxo-1,2-dihydropyridin-3-yl)-N1-cyclopentyl-6-(2-methyl-1,8-naphthyridine-3-carboxamido)hept-2-enediamide]
- pIC50 [1]: 5.82 to 6.60
- logD [2]: < 1
- Papp [3]: < 1 ×10⁻⁶ cm/s

SMILES: CCCCCNC(=O)/C=C/CC[C@H](NC(=O)c1nc2ccccc2s1)C(=O)Nc1cccn(CC(=O)NC23CC(C2)C3)c1=O [III-142, (S,E)-6-(benzo[d]thiazole-2-carboxamido)-N7-(1-(2-(bicyclo[1.1.1]pentan-1-ylamino)-2-oxoethyl)-2-oxo-1,2-dihydropyridin-3-yl)-N1-pentylheptyl-2-enediamide]
- pIC50 [1]: 6.60 to 7.60
- logD [2]: 1 to 3
- Papp [3]: 1 to 10 ×10⁻⁶ cm/s

SMILES: CN(C)C(=O)/C=C/CC[C@H](NC(=O)c1cncn1C)C(=O)Nc1cccn(CC(=O)NC2C3CC4CC(C3)CC2C4)c1=O (stereo partly drawn) [III-76, (S,E)-N^7-(1-(2-(2-adamantylamino)-2-oxoethyl)-2-oxo-1,2-dihydropyridin-3-yl)-N^1,N^1-dimethyl-6-(1-methyl-1H-imidazole-5-carboxamido)hept-2-enediamide]
- pIC50 [1]: 6.60 to 7.60
- logD [2]: 1 to 3
- Papp [3]: < 1 ×10⁻⁶ cm/s

SMILES: O=C(/C=C/CC[C@H](NC(=O)c1nc(Br)cs1)C(=O)Nc1cccn(CC(=O)NC23CC(C2)C3)c1=O)NCc1ccccc1 [III-155, (S,E)-N1-benzyl-N7-(1-(2-(bicyclo[1.1.1]pentan-1-ylamino)-2-oxoethyl)-2-oxo-1,2-dihydropyridin-3-yl)-6-(4-bromothiazole-2-carboxamido)hept-2-enediamide]
- pIC50 [1]: 6.60 to 7.60
- logD [2]: 1 to 3
- Papp [3]: 1 to 10 ×10⁻⁶ cm/s

— patent US20240317708A1, “INHIBITORS OF TRANSGLUTAMINASES” (ZEDIRA GMBH, priority 2021, published 2024)
